The record followed here is patent US9956242B2, “Pharmaceutical composition for prevention or treatment of cognitive function disorders comprising spinosin” (MINISTRY OF FOOD AND DRUG SAFETY, priority 2011, dated 2018).

Read-outs that look alike come from different tables or passages of the source.

In assay [1] the test system is mice with memory impairment induced by scopolamine. Kind of assay: Passive avoidance test 2 (zizyphi spinosi semen extract), scopolamine-induced memory impairment. The class given is in vivo, ICR mice. To be noted: control group 1, donepezil 5 mg/Kg, scopolamine 1 mg/Kg i.p. As to the method: (§1) 6-week-old ICR mice (Orient Bio Inc., Korea), weighing about 26 to 28 g, were fed with water and food freely available for 5 days in an environment, where the temperature was about 23±2° C., the humidity was about 55±10%, and the light-dark cycle was 12 hours (Animal Laboratory at the College of Pharmacy in Kyung Hee university), and used in the experiments.
After 30 minutes, learning about the passive avoidance test apparatus was performed on the mice in drug administration groups 1 to 4 and control groups 1 to 3, respectively. Specifically, the mice were placed in the first space kept light, and after a seek time of about 20 seconds, the guillotine door was opened, and the latency time taken for the mice to move to the second space kept dark was measured.
After 24 hours since the learning was completed, the present experiment was performed on drug administration groups 1 to 4 and control groups 1 to 3, respectively. The latency tire taken for all four feet of the mouse to enter the dark space after the guillotine door was opened from the seek time of 10 seconds was measured up to 300 seconds. […]

Assay [2] has the same test system. The experiment in a line: Y-maze test, scopolamine-induced memory impairment. The class given is in vivo, ICR mice. The note with it: control group 1, donepezil 5 mg/Kg; scopolamine 1 mg/Kg i.p. As to the method: as §1
A Y-maze was prepared for the experiment. The Y-maze had three arms, in which each arm was 42 cm in length, 3 cm in width, and 12 cm in height, the angle formed by three arms was 120 degrees, and the Y-maze was made of black polyvinyl resin.
160 mg of the zizyphi spinosi semen extract of Example 1 was dissolved in 4 mL of 10% Tween 80 (Polyoxyethylene sorbitan monooleate: Sigma, U.S.A.) and administered to drug administration groups 1 and 2 at doses of 100 mg/Kg and 200 mg/Kg. […]
After 30 minutes, the mice in drug administration groups 1 and 2 and control groups 1 to 3 were carefully placed on one of three arms of the Y-maze, divided into A, B, and C, respectively, and allowed to freely move, and then the arms where the mice entered were recorded. At this time, only the case where the mouse’ tail fully entered the arm was recorded as the arm where the experimental animal entered, and the case where the mouse entered the same arm was also recorded. […]

For assay [3] the test system is unchanged. Kind of assay: Morris water maze test, scopolamine-induced memory impairment. The class given is in vivo, ICR mice. To be noted: control group 1, donepezil 5 mg/Kg, scopolamine 1 mg/Kg i.p. The procedure:
as §1
A Morris water maze test apparatus was prepared for the experiment. Four labels such as star, square, triangle, and circle were put at regular intervals on a circular pool of 90 cm in diameter and 45 cm in height, and a platform of 29 cm in height was positioned below the star. Water was filled up to 0.5 cm from the platform (water temperature: 21±1° C.) and became cloudy with pigment such that the platform was not visible from the surface of the water.
160 mg of the zizyphi spinosi semen extract of Example 1 was dissolved in 4 mL of 10% Tween 80 (Polyoxyethylene sorbitan monooleate: Sigma, U.S.A.) and administered to drug administration groups 1 and 2 at doses of 100 mg/Kg and 200 mg/Kg. Meanwhile, donepezil (Sigma-Aldrich Chemistry Co.) was administered to control group 1 at a dose of 5 mg/Kg, and 10% Tween 80 was administered to control groups 2 and 3 at a dose of 0.15 mL.
After 30 minutes, the time taken for the mice, put down in one section of the pool, in drug administration groups 1 and 2 and control groups 1 to 3 to reach the platform was measured for 60 seconds. After 30 minutes, the time taken for the mice, repositioned to the original position, to reach the platform was measured until 60 seconds. The above-described process was repeated 4 times, and the average values were obtained. The experiment was performed in the same manner as on the first day while administering the drugs for 4 days, except that the position where the mice were first put down was changed.

Assay [4] has the same test system. The note with it: for Present Experiment latency time: 24 hours after learning; for Learning latency time: learning trial; for latency time increase compared to control group 2 (scopolamine only): present experiment.
[5] abbreviates: control group 1, donepezil 5 mg/Kg, scopolamine 1 mg/Kg i.p.

For `COc1cc2c(cc1OC)C(=O)C(CC1CCN(Cc3ccccc3)CC1)C2` (stereo not drawn) [donepezil], the “Present Experiment latency time” value in assay [1] (24 hours after learning) came out at 140.5 ± 25.47 s; in assay [4] (setting [5]), 151.9 ± 37.24 s. Besides, the figures for the Learning latency time in assay [1] (learning trial) and in assay [4] (setting [5]) were 17.25 ± 5.365 s and 25.13 ± 13.68 s, respectively. Further, the “Alternation behavior (%)” value in assay [2] was 65.71 ± 10.19%. For the same compound, the “Total entry (total number of arm entries)” value in assay [2] worked out at 34.75 ± 7.265. Also, the “Time to reach the platform” value in assay [3] (1st day) is 59.34 ± 2.055 s; in assay [3] (2nd day) it was 48.75 ± 14.98 s; in assay [3] (3rd day), 42.80 ± 15.16 s; in assay [3] (4th day), 34.35 ± 13.80 s.

Take `COc1cc2oc(-c3ccc(O)cc3)cc(=O)c2c(O)c1[C@@H]1O[C@H](CO)[C@@H](O)[C@H](O)[C@H]1O[C@@H]1O[C@H](CO)[C@@H](O)[C@H](O)[C@H]1O` [spinosin, 6-(2-O-beta-D-Glocopyranosyl-beta-D-glucopyranosyl)-5-hydroxy-2-(4-hydroxyphenyl)-7-methoxy-4H-1-benzopyran-4-one]: the “latency time increase compared to control group 2 (scopolamine only)” value is “about 20 seconds” in assay [4] (2.5 mg/Kg), “about 2.5 times” in assay [4] (5 mg/Kg), “about 3 times” in assay [4] (10 mg/Kg) and “about 3.5 times” in assay [4] (20 mg/Kg). Besides, the Learning latency time in assay [4] (2.5 mg/Kg, scopolamine 1 mg/Kg i.p. 30 min later) came to 25.88 ± 13.72 s; in assay [4] (5 mg/Kg, scopolamine 1 mg/Kg i.p. 30 min later) it was 29.38 ± 18.17 s; in assay [4] (10 mg/Kg, scopolamine 1 mg/Kg i.p. 30 min later), 20.50 ± 9.196 s; in assay [4] (20 mg/Kg, scopolamine 1 mg/Kg i.p. 30 min later) it was 36.00 ± 16.45 s. The “Present Experiment latency time” value in assay [4] (2.5 mg/Kg, scopolamine 1 mg/Kg i.p., measured up to 300 seconds) came to 59.13 ± 46.88 s; in assay [4] (5 mg/Kg, scopolamine 1 mg/Kg i.p., measured up to 300 seconds), 107.1 ± 91.70 s; in assay [4] (10 mg/Kg, scopolamine 1 mg/Kg i.p., measured up to 300 seconds), 131.3 ± 69.94 s; in assay [4] (20 mg/Kg, scopolamine 1 mg/Kg i.p., measured up to 300 seconds), 146.0 ± 83.53 s. In addition, the “latency time compared to control group 2 (in words)” value in assay [4] (drug administration groups 1 to 4, 2.5 to 20 mg/Kg) is listed as “significantly increased”. The “memory and learning ability compared to control group 1 (donepezil) (in words)” value in assay [4] (drug administration groups 3 and 4, 10 and 20 mg/Kg) was “improved to an extent similar to that in control group 1”.
